According to ChEMBL document CHEMBL3046364, “Influence of 1, 3, 5-Triazine Compounds on Ammonia Oxidizing Activity of Cell-Free Extracts from Nitrosomonas europaea” (J Pestic Sci, 2002):

These compounds were tested on Nitrosomonas europaea (assay: Inhibition of ammonia oxidation in cell suspensions of Nitrosomonas europaea ATCC 25978 assessed as oxygen consumption). Conditions: read-out: pI50 (converted).
Type: functional, organism-based

| IC50 [µM] | Compound |
| --- | --- |
| 2 | CCNc1nc(C)nc(C(Cl)(Cl)Cl)n1 |
| 0.0759 | Nc1nc(C(Cl)(Cl)Cl)nc(C(Br)(Br)Br)n1 |

Further lines, the compound ahead of its results:

| Compound | IC50 [µM] |
| --- | --- |
| CCCCCCCCCCCCCCNc1nc(C)nc(C(Cl)(Cl)Cl)n1 | 21.9 |
| Cc1nc(N)nc(C(Cl)(Cl)Cl)n1 | 4.9 |
| CNc1nc(C)nc(C(Cl)(Cl)Cl)n1 | 3.55 |
